Measurements published in patent publication US11472805B2, “Tricyclic compounds and their use as phosphodiesterase inhibitors” (Pfizer Inc., priority 2015, dated 2022).
Where a name gives a salt, the structure may show the parent alone. Read-outs that look alike come from different tables or passages of the source.

Tests used:
Assay type in all cases: biochemical
Human PDE4B1 = Human PDE4B1 (Homo sapiens (Human), UniProt Q07343, S133E/S654A/S659A/S661A); assay: PDE4B1 Scintillation Proximity Assay (SPA), inhibition of enzyme activity; conditions: read-out: Human PDE4B FL
Sequence of Human PDE4B1 (Q07343 122-736 S133E/S654A/S659A/S661A): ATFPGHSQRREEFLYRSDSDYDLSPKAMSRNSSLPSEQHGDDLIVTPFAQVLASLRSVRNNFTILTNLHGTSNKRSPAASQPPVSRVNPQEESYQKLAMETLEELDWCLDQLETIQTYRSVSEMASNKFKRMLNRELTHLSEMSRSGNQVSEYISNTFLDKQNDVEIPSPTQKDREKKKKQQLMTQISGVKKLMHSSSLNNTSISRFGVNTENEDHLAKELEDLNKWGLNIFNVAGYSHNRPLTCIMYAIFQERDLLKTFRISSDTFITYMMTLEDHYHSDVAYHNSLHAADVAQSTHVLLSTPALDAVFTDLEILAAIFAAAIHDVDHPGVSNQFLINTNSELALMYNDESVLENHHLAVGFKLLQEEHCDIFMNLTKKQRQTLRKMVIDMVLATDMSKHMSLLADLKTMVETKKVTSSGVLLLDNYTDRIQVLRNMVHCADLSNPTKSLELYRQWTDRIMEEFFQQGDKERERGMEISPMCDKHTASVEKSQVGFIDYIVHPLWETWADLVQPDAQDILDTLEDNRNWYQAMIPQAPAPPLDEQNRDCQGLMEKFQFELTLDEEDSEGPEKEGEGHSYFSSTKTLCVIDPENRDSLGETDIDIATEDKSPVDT
Experimental: (§1) The PDE4A, PDE4B, PDE4C and PDE4D binding affinity for the compounds of the present invention was determined utilizing the following biological assay(s):
The recombinant Bacmid was isolated and used to transfect insect cells to generate a viral stock. To generate cell paste for purification, insect cells were infected with the virus stock and cells were harvested 72 hours after infection as described in Seeger, T. F. et al., Brain Research 985 (2003) 113-126. Insect cell paste was lysed and after centrifugation, the supernatant was chromatographed on Ni-NTA agarose (Qiagen) as described in Seeger, T. F. et al., Brain Research 985 (2003) 113-126. Ni-NTA agarose eluting fractions containing PDE4 were pooled, diluted with Q buffer A (20 mM Tris HCl pH 8, 5% glycerol, 1 mM TCEP) to reduce NaCl to ˜100 mM and loaded on a Source 15Q (GE Healthcare) column. After washing with Q buffer A/10% buffer B to baseline, PDE4D was eluted with a gradient from 10% to 60% of Buffer B (20 mM Tris HCl pH 8, 1 M NaCl, 5% glycerol, 1 mM TCEP). PDE4D fractions were analyzed by SDS-PAGE Coomassie blue staining, pooled based on purity, frozen and stored at −80° C.
(§2) The PDE4A3, PDE4B1, PDE4C1 and PDE4D3 assays use the Scintillation Proximity Assay (SPA) technology to measure the inhibition of human recombinant PDE4A1, PDE4B3, PDE4C1, and PDE4D3 enzyme activity by compounds in vitro. The PDE4A1, PDE4B3, PDE4C1, and PDE4D3 assays are run in parallel using identical parameters, except for the concentration of enzyme ([…]). The assays are performed in a 384-well format with 50 uL assay buffer (50 mM TRIS pH7.5; 1.3 mM MgCl2; 0.01% Brij) containing enough PDE4A3, PDE4B1, PDE4C1, and PDE4D to convert ˜20% of substrate (1 μM cAMP consisting of 20 nM 3H-cAMP+[…] cold cAMP) and a range of inhibitors. Reactions are incubated for 30 min at 25° C. The addition of 20 uL of 8 mg/ml yitrium silicate SPA beads (Perkin Elmer) stops the reaction. The plates are sealed (TopSeal, Perkin Elmer) and the beads are allowed to settle for 8 hrs, after which they are read on the Trilux Microbeta overnight.

human PDE4D3 = human PDE4D3 (Homo sapiens (Human), UniProt Q08499); assay: PDE4D3 Scintillation Proximity Assay (SPA), inhibition of enzyme activity; conditions: read-out: Human PDE4D FL
Sequence of human PDE4D3 (Q08499 186-808): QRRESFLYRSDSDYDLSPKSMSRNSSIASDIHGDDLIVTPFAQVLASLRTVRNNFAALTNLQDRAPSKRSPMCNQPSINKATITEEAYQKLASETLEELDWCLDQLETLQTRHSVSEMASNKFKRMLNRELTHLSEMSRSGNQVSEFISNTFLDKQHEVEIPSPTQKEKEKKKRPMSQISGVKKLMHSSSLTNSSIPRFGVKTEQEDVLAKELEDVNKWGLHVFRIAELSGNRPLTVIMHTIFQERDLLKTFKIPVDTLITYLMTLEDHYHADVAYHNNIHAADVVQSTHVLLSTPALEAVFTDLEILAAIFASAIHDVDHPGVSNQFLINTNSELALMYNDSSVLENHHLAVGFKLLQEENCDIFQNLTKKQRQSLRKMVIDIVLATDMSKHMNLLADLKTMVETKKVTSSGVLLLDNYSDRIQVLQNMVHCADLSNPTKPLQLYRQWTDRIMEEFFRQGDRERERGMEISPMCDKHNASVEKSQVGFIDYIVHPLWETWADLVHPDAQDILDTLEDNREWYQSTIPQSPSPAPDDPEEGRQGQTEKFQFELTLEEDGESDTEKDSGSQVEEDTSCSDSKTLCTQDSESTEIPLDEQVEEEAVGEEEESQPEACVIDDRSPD
Experimental: as §1
A portion of the human PDE4D3 coding sequence (amino acids 50 to 672 from the sequence with accession number Q08499-2) was cloned into the baculovirus expression vector pFastBac (Invitrogen) engineered to include a C-terminal His6 affinity tag to aid in purification as described in Seeger, T. F. et al., Brain Research 985 (2003) 113-126. The recombinant Bacmid was isolated and used to transfect insect cells to generate a viral stock. To generate cell paste for purification, insect cells were infected and cells were harvested 72 hours after infection. Insect cell paste was lysed and after centrifugation, the supernatant was chromatographed on Ni-NTA agarose (Qiagen) as described in Seeger, T. F. et al., Brain Research 985 (2003) 113-126. Ni-NTA agarose eluting fractions containing PDE4 were pooled, diluted with Q Buffer A (50 mM Tris HCl pH 8, 4% glycerol, 100 mM NaCl, 1 mM TCEP, Protease inhibitors EDTA-free (Roche)) to reduce NaCl to ˜200 mM, and loaded on a Q Sepharose (GE Healthcare) column. After washing with Q buffer A to baseline, PDE4D was eluted with a gradient from 10% to 60% of Buffer B (50 mM Tris HCl pH 8, 1 M NaCl, 4% glycerol, 1 mM TCEP). PDE4D fractions were analyzed by SDS-PAGE Coomassie blue staining, pooled based on purity, frozen and stored at −80° C.
as §2

Human PDE4A3 = Human PDE4A3 (Homo sapiens (Human), UniProt P27815); assay: PDE4A3 Scintillation Proximity Assay (SPA), inhibition of enzyme activity; conditions: Table 10, geometric mean of 2-9 determinations unless otherwise indicated, read-out: Human PDE4A FL
Sequence of Human PDE4A3 (P27815 other isoform, or with tags, fused parts or gaps): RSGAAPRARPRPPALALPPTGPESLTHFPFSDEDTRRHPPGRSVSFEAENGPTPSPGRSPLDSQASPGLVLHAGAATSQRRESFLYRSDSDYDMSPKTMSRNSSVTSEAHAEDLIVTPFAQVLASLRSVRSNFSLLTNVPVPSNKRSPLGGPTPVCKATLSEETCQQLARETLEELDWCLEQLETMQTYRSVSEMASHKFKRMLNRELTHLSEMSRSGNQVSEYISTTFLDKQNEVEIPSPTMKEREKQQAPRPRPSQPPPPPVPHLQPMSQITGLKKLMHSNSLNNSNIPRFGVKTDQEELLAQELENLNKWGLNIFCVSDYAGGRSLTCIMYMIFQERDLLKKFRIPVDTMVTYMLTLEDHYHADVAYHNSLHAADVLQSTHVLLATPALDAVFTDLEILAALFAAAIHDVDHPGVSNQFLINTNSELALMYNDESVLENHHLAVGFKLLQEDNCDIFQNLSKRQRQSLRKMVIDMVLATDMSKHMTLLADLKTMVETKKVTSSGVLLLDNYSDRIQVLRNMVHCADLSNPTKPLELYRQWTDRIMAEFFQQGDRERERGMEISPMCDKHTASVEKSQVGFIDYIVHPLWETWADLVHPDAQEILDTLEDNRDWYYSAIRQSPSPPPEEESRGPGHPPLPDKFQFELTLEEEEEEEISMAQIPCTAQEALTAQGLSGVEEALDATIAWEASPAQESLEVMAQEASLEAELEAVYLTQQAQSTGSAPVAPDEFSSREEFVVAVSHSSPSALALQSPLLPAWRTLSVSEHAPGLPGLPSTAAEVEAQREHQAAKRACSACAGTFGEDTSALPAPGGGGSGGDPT
Experimental: as §1
The recombinant Bacmid was isolated and used to transfect insect cells to generate a viral stock. To generate cell paste for purification, insect cells were infected with the virus stock and cells were harvested 72 hours after infection. Insect cell paste was lysed and after centrifugation, the supernatant was batch bound to Ni-NTA agarose (GE Healthcare) and eluted with 250 mM imidazole. This eluate was diluted with FLAG buffer (50 mM Tris HCL pH 7.5, 100 mM NaCl, 5% Glycerol, 1 mM TCEP with protease inhibitors) and batch bound to ant-FLAG M2 agarose (Sigma) overnight at 4° C. The agarose was packed into a column, washed with buffer and eluted with buffer containing elute using 250 ug/ml Flag-peptide. Fractions were analyzed using SDS-PAGE Coomassie blue staining and pooled based on purity. Pooled fractions were chromatographed on a S200 120 ml column (GE Healthcare) in 50 mM Tris HCL pH 7.5, 150 mM NaCl, 10% Glycerol, 2 mM TCEP with protease inhibitors. PDE4A3 fractions were analyzed by SDS-PAGE Coomassie blue staining, pooled based on purity, dialyzed against 50 mM Tris HCL pH 7.5, 100 mM NaCl, 20% Glycerol, 2 mM TCEP, frozen and stored at −80° C.
as §2

[1] = Table 10, geometric mean of 2-9 determinations unless otherwise indicated
[2] = Table 9, geometric mean of 2-9 determinations unless otherwise indicated

IC50 (Human PDE4B1; [1])	IC50 (human PDE4D3; [1])	IC50 (Human PDE4B1; [2])	IC50 (human PDE4D3; [2])	IC50 (Human PDE4A3)	Structure (SMILES)
15400 nM	> 29700 nM	–	–	–	Cc1ccc(-c2c3n(c4nccnc24)CCN(C2CC2)C3=O)cn1 [Example 83, 8-Cyclopropyl-10-(6-methylpyridin-3-yl)-7,8-dihydropyrrolo[1,2-a:4,5-b′]dipyrazin-9(6H)-one]
–	–	5.87 nM	476 nM	–	O=C1c2c(-c3ccc(Cl)cc3)c3ncccc3n2CCN1c1nnc[nH]1 [Example 5, 10-(4-Chlorophenyl)-8-(4H-1,2,4-triazol-3-yl)-7,8-dihydropyrido[2′,3′:4,5]pyrrolo[1,2-a]pyrazin-9(6H)-one]
–	–	332 nM	> 30000 nM	–	O=C1c2c(-c3ccc(F)cn3)c3ncccc3n2CCN1C1CC1 [Example 62, 8-Cyclopropyl-10-(5-fluoropyridin-2-yl)-7,8-dihydropyrido[2′,3′:4,5]pyrrolo[1,2-a]pyrazin-9(6H)-one]
2640 nM	> 28700 nM	–	–	–	COc1ncc(-c2c3n(c4nccnc24)CCN(C2CC2)C3=O)cn1 [Example 87, 8-Cyclopropyl-10-(2-methoxypyrimidin-5-yl)-7,8-dihydropyrrolo[1,2-a:4,5-b′]dipyrazin-9(6H)-one]
–	–	26.5 nM	1470 nM	–	N#Cc1ccc(-c2c3n(c4cccnc24)CCN(C2CC2)C3=O)cc1 [Example 43, 4-(8-Cyclopropyl-9-oxo-6,7,8,9-tetrahydropyrido[2′,3′:4,5]pyrrolo[1,2-a]pyrazin-10-yl)benzonitrile]
–	–	6.87 nM	442 nM	–	COc1cc(-c2c3n(c4cccnc24)CCN(C2CC2)C3=O)c(F)cc1Cl [Example 15, 10-(4-Chloro-2-fluoro-5-methoxyphenyl)-8-cyclopropyl-7,8-dihydropyrido[2′,3′: 4,5]pyrrolo[1,2-a]pyrazin-9(6H)-one]
–	–	27.9 nM	803 nM	–	CN1CCn2c(c(-c3ccc(Cl)cc3)c3ncccc32)C1=O [Example 30, 10-(4-Chlorophenyl)-8-methyl-7,8-dihydropyrido[2′,3′:4,5]pyrrolo[1,2-a]pyrazin-9(6H)-one]
–	–	1 nM	81 nM	–	CCCN1CCn2c(c(-c3ccc(Cl)cc3)c3ncccc32)C1=O [Example 17, 10-(4-Chlorophenyl)-8-propyl-7,8-dihydropyrido[2′,3′:4,5]pyrrolo[1,2-a]pyrazin-9(6H)-one]
–	–	8.32 nM	2670 nM	–	O=c1c2c(-c3ccc(Cl)cc3)c3ncccc3n2ccn1-c1nnc[nH]1 [Example 6, 10-(4-Chlorophenyl)-8-(4H-1,2,4-triazol-3-yl)pyrido[2′,3′:4,5]pyrrolo[1,2-a]pyrazin-9(8H)-one]
15300 nM	> 29900 nM	–	–	–	O=C1c2c(-n3cccn3)c3ncccc3n2CCN1C1CC1 [Example 92, 8-Cyclopropyl-10-(1H-pyrazol-1-yl)-7,8-dihydropyrido[2′,3′:4,5]pyrrolo[1,2-a]pyrazin-9(6H)-one]
–	–	5.52 nM	253 nM	–	Cc1cc(Cl)ccc1-c1c2n(c3cccnc13)CCN(C1CC1)C2=O [Example 56, 10-(4-Chloro-2-methylphenyl)-8-cyclopropyl-7,8-dihydropyrido[2′,3′:4,5]pyrrolo[1,2-a]pyrazin-9(6H)-one]
–	–	2.43 nM	87.9 nM	–	CCN1CCn2c(c(-c3ccc(Cl)cc3)c3ncccc32)C1=O [Example 31, 10-(4-Chlorophenyl)-8-ethyl-7,8-dihydropyrido[2′,3′:4,5]pyrrolo[1,2-a]pyrazin-9(6H)-one]
> 30000 nM	> 30000 nM	–	–	> 30000 nM	Cn1nc(-c2c3n(c4cccnc24)CCN(C2CC2)C3=O)nc1C(F)F [Example 90, 8-Cyclopropyl-10-(5-(difluoromethyl)-1-methyl-1H-1,2,4-triazol-3-yl)-7,8-dihydropyrido[2′,3′:4,5]pyrrolo[1,2-a]pyrazin-9(6H)-one]
59.5 nM	30.6 nM	–	–	–	CC(=O)N1CCn2c(c(-c3ccc(Cl)cc3)c3ncccc32)C1=O [Example 78, 8-Acetyl-10-(4-chlorophenyl)-7,8-dihydropyrido[2′,3′:4,5]pyrrolo[1,2-a]pyrazin-9(6H)-one]
2960 nM	> 30000 nM	–	–	–	COc1ncc(-c2c3n(c4cncnc24)CCN(C2CC2)C3=O)cn1 [Example 89, 8-Cyclopropyl-10-(2-methoxypyrimidin-5-yl)-7,8-dihydropyrazino[1′,2′:1,5]pyrrolo[3,2-d]pyrimidin-9(6H)-one]
–	–	1.38 nM	150 nM	–	O=C1c2c(-c3ccc(Cl)cc3)c3ncccc3n2C[C@H]2CCCN12 [Example 3, (6aR)-12-(4-Chlorophenyl)-6a, 7,8,9-tetrahydro-6H,11H-pyrido[2′,3′:4,5]pyrrolo[1,2-a]pyrrolo[1,2-d]pyrazin-11-one, trifluoroacetate salt]
–	–	78.7 nM	1720 nM	–	O=C1c2c(-c3ccsc3)c3ncccc3n2CCN1C1CC1 [Example 39, 8-Cyclopropyl-10-(thiophen-3-yl)-7,8-dihydropyrido[2′,3′:4,5]pyrrolo[1,2-a]pyrazin-9(6H)-one]
–	–	12.4 nM	1110 nM	–	O=C1c2c(-c3ccc(Cl)cc3)c3ncccc3n2C[C@@H]2CCCN12 [Example 52, (6aS)-12-(4-Chlorophenyl)-6a,7,8,9-tetrahydro-6H,11H-pyrido[2′,3′:4,5]pyrrolo[1,2-a]pyrrolo[1,2-d]pyrazin-11-one]
–	–	18.5 nM	1600 nM	–	O=C1NCCn2c1c(-c1ccc(Cl)cc1)c1ncccc12 [Example 19, 10-(4-Chlorophenyl)-7,8-dihydropyrido[2′,3′:4,5]pyrrolo[1,2-a]pyrazin-9(6H)-one]
–	–	6.54 nM	426 nM	–	COc1ccc(-c2c3n(c4cccnc24)CCN(C2CC2)C3=O)cn1 [Example 53, 8-Cyclopropyl-10-(6-methoxypyridin-3-yl)-7,8-dihydropyrido[2′,3′:4,5]pyrrolo[1,2-a]pyrazin-9(6H)-one]
–	–	4.93 nM	862 nM	–	O=C1c2c(-c3ccc(Cl)cc3)c3ncccc3n2CC2CCN12 (stereo not shown) [Example 67, 11-(4-Chlorophenyl)-6,6a,7,8-tetrahydro-10H-azeto[1,2-a]pyrido[2′,3′:4,5]pyrrolo[1,2-d]pyrazin-10-one]
